Here are results for one substance from patent US7994307B2, “RNAi modulation of the BCR-ABL fusion gene and uses thereof” (Alnylam Pharmaceuticals, Inc., priority 2004, dated 2011).

One series deals with M07p210/e14a2 cells. Nature of the series: Induction of apoptosis by imatinib mesylate in M07p210/e14a2 cells. Format: cell-based, human. The settings on record: BAF7-treated.
The subject of a further series is Bcr-Abl (e14a2). Nature of the series: Western blot of Bcr-Abl protein in primary CD34 positive cells of CML patients (e14a2). The conditions noted are these: two electroporations, compared to BAF8 or BAF16. The series is classed as cell-based, human. The method, then: FIG. 4: CD34 positive cells isolated from 3 newly diagnosed and untreated Philadelphia chromosome-positive CML patients in chronic phase and positive for bcr-abl-e14a2 by Ficoll-Hypaque density gradient centrifugation and affinity column purification were treated with siRNAs BAF7 (e14a2 specific, Patient 1), BAF8 (mismatch control, Patient 1), BAF12 (e14a2 specific, Patient 2+3), and BAF16 (e13a2 specific, Patient 2+3). Cells were diluted to a density of 2.5×10^6 in 800 μl growth medium, mixed with 12.8 μl of a 50 μM solution of the respective siRNA in a 4-mm electroporation cuvette, and electroporated using a single pulse protocol (250V, 1800 μF). This treatment was repeated after 24 hours, the cells were washed, incubated for another 24 hours, and harvested for western blot analysis. […] Additionally, BAF12 treatment compromised Bcr-Abl activity.
CD34 positive cells were isolated from 3 newly diagnosed and untreated Philadelphia chromosome-positive CML patients in chronic phase. Informed consent was obtained by the patients prior to collection of cells. Mononuclear cells were harvested by Ficoll-Hypaque density gradient centrifugation (Seromed, Berlin, Germany). CD34 positive cells were isolated using a stem cell isolation kit and a MACS column (Miltenyi Biotech, Bergisch Gladbach, Germany) according to manufacturer's instructions. […]
In general terms: A western blot detects proteins with antibodies after separation by electrophoresis.

Another series concerns K562 cells. Put plainly: Viability/growth of K562 cells after lipofection with siRNA. The series is classed as cell-based, human. The method, then:
(§1) Survival Assay: Following the last siRNA treatment cells were seeded in 96 well plates and cultivated for another ˜48 hours. Cell survival was then measured by MTT assay as described (Van der Kuip H, et al., Blood. 2001, 98:1532)
For the transfection of siRNA molecules into the human K562 cells we used Lipofectamin™ 2000 (Invitrogen, Karlsruhe). 1.5 Mio. cells were plated in 1.5 ml RPMI/10% FCS w/o antibiotics into a 6 well plate. For each well 500 μl transfection solution was prepared, containing 8.4 μg siRNA and 21 μl Lipofectamin in OPTI-MEM I reduced serum medium (Gibco, Karlsruhe). The cells were incubated 5 hours with the transfection solution, then the medium was changed to RPMI/10% FCS complemented with Penicillin/Streptomycin. When treated several times, cells were counted ˜24 h following treatment, diluted to 1 Mio/ml and seeded again in a 6 well plate (1.5 ml cell suspension per well). Transfection was then repeated exactly as the day before.

A further series concerns p210Bcr-Abl (e14a2). Nature of the series: Western blot of Bcr-Abl protein in 32Dp210/e14a2 cells after siRNA electroporation. The settings on record: for Bcr-Abl protein levels: 32Dp210/e14a2 cells. Format: cell-based, murine. The protocol:
Protein assay: Western blot analysis was performed ˜24 h following the last siRNA -treatment or ˜96 hours following transfection with the pSUPER siRNA-expression vector as described (Goetz A W, et al., Cancer Res. 2001, 61:7635)
(§2) siRNA-transfection: siRNAs were transfected into the murine cell lines 32Dp210Bcr-Abl-e14a2, -e13a2, 32Dp190Bcr-Abl-e1a2 and the human leukemic cell line MEG-01 using electroporation. Cell density was adjusted to 2.5-5×10^6/ml in RPMI/10% FCS. 800 μl of this cell suspension were mixed with siRNA in a 4 mm electroporation cuvette. Cells were electroporated by means of an EasyJect electroporator (peqlab, Erlangen, Germany) using a single-pulse protocol (250 V, 1800 μF, 8.). This treatment was repeated in intervals of 24 hours as indicated.
(§3) In 32Dp210Bcr-Abl-e14a2, -e13a2 and 32Dp190Bcr-Abl-e1a2 inhibition of Bcr-Abl can be compensated by addition of exogenous growth factor to the medium. Therefor, recombinant murine IL-3, (1 ng/ml) was added to the growth medium during siRNA treatment of these cell lines. Following the last siRNA treatment cells were washed and factor deprived before starting the different examination procedures (Western blot/MTT).
We used three murine hematopoetic 32D cell lines expressing either p210Bcr-Abl (e14a2), p210Bcr-Abl (e13a2) or p190Bcr-Abl (e1a2) to study the effectiveness of siRNAs to silence each of these human Bcr-Abl fusion breakpoint variants. In addition, experiments were performed in human Ph+leukemia cells (K562, MEG-01). All siRNAs used were directed to breakpoints of the Bcr and Abl sequence of the respective Bcr-Abl mRNA. RNAi-efficiency was assayed via analysis of Bcr-Abl protein levels and by monitoring the biological effect using MTT viability assay.

Another series concerns 32Dp210/e14a2 cells. Nature of the series: MTT viability assay in 32Dp210/e14a2 cells after siRNA electroporation. Format: cell-based, murine. The method, then:
as §1, §2, §3
(In general: Formazan colour is commonly taken as a measure of viable cells.)

“Also recorded” adds a separate entry of the source.

Chain of p210Bcr-Abl (e14a2) (P11274+P00519 fused): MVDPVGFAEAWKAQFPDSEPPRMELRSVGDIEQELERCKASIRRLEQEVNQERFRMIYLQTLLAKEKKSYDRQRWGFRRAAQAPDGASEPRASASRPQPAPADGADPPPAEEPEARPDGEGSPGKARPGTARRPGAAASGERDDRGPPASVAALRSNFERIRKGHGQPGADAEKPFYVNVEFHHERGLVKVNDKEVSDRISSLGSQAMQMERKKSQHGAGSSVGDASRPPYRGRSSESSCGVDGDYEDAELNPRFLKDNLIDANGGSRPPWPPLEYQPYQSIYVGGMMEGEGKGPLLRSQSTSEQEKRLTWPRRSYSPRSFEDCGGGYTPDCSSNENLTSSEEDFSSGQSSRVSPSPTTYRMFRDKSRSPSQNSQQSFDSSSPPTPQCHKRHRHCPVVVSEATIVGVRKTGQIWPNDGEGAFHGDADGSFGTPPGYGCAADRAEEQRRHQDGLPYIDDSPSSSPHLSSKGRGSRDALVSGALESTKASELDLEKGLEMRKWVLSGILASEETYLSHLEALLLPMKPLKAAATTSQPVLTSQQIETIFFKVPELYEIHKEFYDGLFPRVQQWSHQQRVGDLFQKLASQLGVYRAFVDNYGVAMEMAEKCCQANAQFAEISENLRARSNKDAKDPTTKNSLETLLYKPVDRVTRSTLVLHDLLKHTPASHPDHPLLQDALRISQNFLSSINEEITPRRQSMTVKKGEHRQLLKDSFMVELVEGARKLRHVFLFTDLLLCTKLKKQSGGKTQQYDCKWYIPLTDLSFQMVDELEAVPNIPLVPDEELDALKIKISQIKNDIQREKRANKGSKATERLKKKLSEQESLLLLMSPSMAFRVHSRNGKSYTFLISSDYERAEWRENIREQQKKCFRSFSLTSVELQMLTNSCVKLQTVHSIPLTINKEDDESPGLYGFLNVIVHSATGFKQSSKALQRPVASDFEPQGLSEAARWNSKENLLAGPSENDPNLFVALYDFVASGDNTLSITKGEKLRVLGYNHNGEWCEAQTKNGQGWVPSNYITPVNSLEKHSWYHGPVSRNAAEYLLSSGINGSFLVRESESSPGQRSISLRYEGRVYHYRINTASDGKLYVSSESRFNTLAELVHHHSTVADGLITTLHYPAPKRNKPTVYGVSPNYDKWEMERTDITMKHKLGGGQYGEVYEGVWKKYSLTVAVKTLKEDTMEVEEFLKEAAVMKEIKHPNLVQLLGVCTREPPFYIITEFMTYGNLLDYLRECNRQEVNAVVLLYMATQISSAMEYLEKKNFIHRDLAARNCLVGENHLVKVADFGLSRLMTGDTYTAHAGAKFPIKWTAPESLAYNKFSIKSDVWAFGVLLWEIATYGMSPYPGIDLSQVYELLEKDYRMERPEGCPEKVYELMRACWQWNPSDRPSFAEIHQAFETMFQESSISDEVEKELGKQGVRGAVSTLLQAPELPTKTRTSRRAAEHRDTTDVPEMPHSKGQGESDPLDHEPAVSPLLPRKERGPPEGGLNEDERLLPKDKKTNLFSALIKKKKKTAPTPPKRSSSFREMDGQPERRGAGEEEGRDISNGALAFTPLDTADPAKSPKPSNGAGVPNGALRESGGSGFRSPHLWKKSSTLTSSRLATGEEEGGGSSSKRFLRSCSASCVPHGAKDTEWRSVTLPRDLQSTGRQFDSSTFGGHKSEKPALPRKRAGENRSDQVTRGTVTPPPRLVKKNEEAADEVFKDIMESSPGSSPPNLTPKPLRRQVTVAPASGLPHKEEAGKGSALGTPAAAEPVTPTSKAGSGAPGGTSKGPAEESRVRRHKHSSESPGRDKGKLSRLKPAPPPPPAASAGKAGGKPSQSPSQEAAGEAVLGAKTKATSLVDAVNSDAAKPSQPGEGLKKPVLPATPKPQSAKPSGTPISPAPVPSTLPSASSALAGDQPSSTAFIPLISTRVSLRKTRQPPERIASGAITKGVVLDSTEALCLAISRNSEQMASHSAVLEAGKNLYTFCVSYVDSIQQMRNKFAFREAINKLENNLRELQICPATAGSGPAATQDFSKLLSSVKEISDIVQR
Chain of Bcr-Abl (e14a2) (P11274+P00519 fused): as above

In general, viability refers to a per cent measure of how many cells are alive, often set against a control. “BAF7: siRNA duplex, sense SEQ ID No. 1, antisense SEQ ID No. 23, specific for Bcr-Abl-e14a2 (sense CAGAGUUCAAAAGCCCUUCAG; antisense CUGAAGGGCUUUUGAACUCUGCU; listed as RNA, chemistry not given here)”: the “induction of apoptosis by 0.05 μM imatinib mesylate in siRNA-treated cells” value in the series on M07p210/e14a2 cells was “significant induction of apoptosis”. Further, the Bcr-Abl protein levels entry was “significant reduction” in the series with Bcr-Abl (e14a2); “reduced the amount of Bcr-Abl protein to the detection limit; also recorded: almost complete disappearance of Bcr-Abl protein” in the series on p210Bcr-Abl (e14a2) (four consecutive treatments at intervals of 24 h); “notable reduction; also recorded: significant reduction” in the series on p210Bcr-Abl (e14a2) (single siRNA treatment, Western blot). Moreover, the growth result with K562 cells (K562, 48 hours following one single treatment, lipofectamin 2000) is “only a minimal growth reduction”. Also, the viability is reported as 45% with K562 cells (K562, 48 hours following the third lipofection at intervals of 24 hours) and “virtual loss of viability; also recorded: virtually complete loss of viability” in the series with 32Dp210/e14a2 cells (four treatments). Further, in the series with p210Bcr-Abl (e14a2) (32Dp210Bcr-Abl (e14a2) cells, after one single treatment), the “recovery of Bcr-Abl protein levels” value was “quickly recovered to pre-treatment levels”. Also, the “viability relative to electroporation control cells (EPC, 100%)” value in the series on 32Dp210/e14a2 cells (single treatment, MTT) is listed as “approximately 59%”. Also, the “viability relative to EPC” value with 32Dp210/e14a2 cells (treated four times, MTT) was no more than 2.5%.
